Assay results reported in patent publication US8247211B2, “Glycopeptide antibiotics” (American Cyanamid Company, priority 2001, dated 2012).

Assays:
Enterococcus sp. = experiment: In vitro antibacterial evaluation: minimum inhibitory concentration (MIC), broth dilution method; assay type: cell-based
Outline: (§1)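 Test strains, among them recent clinical isolates carrying methicillin, penicillin and/or vancomycin resistance, were inoculated at 5×10^5 CFU/mL. A broth dilution series spanning 64-0.06 μg/mL in Muller-Hinton II […] (NCCLS M7-A2) defined the MIC as the lowest growth-inhibiting concentration.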

Escherichia coli = experiment: as above; assay type: cell-based
Outline: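 Following NCCLS approved standard M7-A2, compounds are serially diluted from 64 to 0.06 μg/mL in Muller-Hinton II […] and inoculated at 5×10^5 CFU/mL; the MIC is the minimum concentration at which growth is inhibited.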

Staphylococcus sp. = experiment: as above; assay type: cell-based; settings: 18 hours at 35° C.
Outline: as §1

Streptococcus sp. = experiment: as above; assay type: cell-based
Outline: as §1

[1] = tested on: Staphylococcus aureus-SMITH (GC 4543); experiment: Acute lethal infection in mice (ED50); assay type: in vivo; settings: female CD-1 mice, intraperitoneal challenge, intravenous dose 30 min. after infection, 7 day survival ratios
Outline: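 Female CD-1 mice challenged intraperitoneally with a bacterial dose lethal to untreated controls within 24-48 h. Compound given intravenously in saline or 5% dextrose 30 min post-infection, five mice per dose; ED50 from 7-day survival pooled over 3 tests.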

[2] = Anatomic pathology (heart and kidney histopathology) in mice; assay type: in vivo, CD-1 mice; settings: 20 mg/kg intravenously daily for 9 days, microscopic histopathology on day 10
Outline: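 Juvenile CD-1 mice (20 days old; 5 vehicle, 5 treated) received glycopeptide antibiotic 20 mg/kg i.v. daily for 9 days. Necropsied tissues formalin-fixed, paraffin-embedded, H&E stained and examined microscopically; findings graded slight to severe versus controls.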

[3] = broth dilution, inoculum 5×10^5 CFU/mL, 18 hours at 35° C.

COc1ccc2cc(COCC3OC(OC4C(CO)OC(Oc5ccc(CC6NC(=O)C(C(C)c7ccccc7)NC(=O)CNC(=O)C(CO)NC(=O)C(C(O)C7CNC(=N)N7C7OC(CO)C(O)C(O)C7O)NC(=O)C(C(O)C7CNC(=N)N7)NC6=O)cc5)C(O)C4O)C(O)C(O)C3O)ccc2c1 (stereo not drawn) [Example 230, Cyclo[glycyl-β-methylphenylalanyl-O-[4-O-[6-O-[(6-methoxy-2-naphthyl)methyl]hexopyranosyl]hexopyranosyl]tyrosyl-3-(2-iminoimidazolidin-4-yl)seryl-3-(3-hexopyranosyl-2-iminoimidazolidin-4-yl)serylseryl]]
0.5 µg/mL: MIC Coagulase Negative Staphylococcus (GC 4548) (Staphylococcus sp.; Coagulase Negative Staphylococcus (GC 4548)) | MIC Coagulase Negative Staphylococcus (GC 6257) (Staphylococcus sp.; Coagulase Negative Staphylococcus (GC 6257)) | MIC Streptococcus agalactiae (GC 4564) (Streptococcus sp.; Streptococcus agalactiae (GC 4564), 18 hours at 35° C.) | MIC Streptococcus agalactiae (GC 4564) (Streptococcus sp.; [3])
+++: Anatomical Pathology (Day 10), Kidney [2]
>64 µg/mL: MIC Escherichia coli (GC 4559) (Escherichia coli; Escherichia coli (GC 4559), 18 hours at 35° C.)
0.12 µg/mL: MIC Streptococcus pneumoniae (ATCC 6301) (Streptococcus sp.; Streptococcus pneumoniae (ATCC 6301), 18 hours at 35° C.) | MIC Streptococcus pneumoniae (GC 4565) (Streptococcus sp.; Streptococcus pneumoniae (GC 4565), 18 hours at 35° C.) | MIC Streptococcus pneumoniae (ATCC 6301) (Streptococcus sp.; [3]) | MIC Streptococcus pneumoniae (GC 4565) (Streptococcus sp.; [3])
64 µg/mL: MIC Escherichia coli (ATCC 25922) (Escherichia coli; Escherichia coli (ATCC 25922), 18 hours at 35° C.)
8 µg/mL: MIC Enterococcus avium (GC 4558) (Enterococcus sp.; Enterococcus avium (GC 4558), 18 hours at 35° C.) | MIC Enterococcus faecalis (ATCC 29212) (Enterococcus sp.; Enterococcus faecalis (ATCC 29212), 18 hours at 35° C.) | MIC Enterococcus faecalis (GC 2242) (Enterococcus sp.; Enterococcus faecalis (GC 2242), 18 hours at 35° C.) | MIC Enterococcus faecalis (GC 3059) (Enterococcus sp.; Enterococcus faecalis (GC 3059), 18 hours at 35° C.) | MIC Enterococcus faecalis (GC 4552) (Enterococcus sp.; Enterococcus faecalis (GC 4552), 18 hours at 35° C.) | MIC Enterococcus faecalis (GC 4553) (Enterococcus sp.; Enterococcus faecalis (GC 4553), 18 hours at 35° C.) | MIC Enterococcus faecalis (GC 4554) (Enterococcus sp.; Enterococcus faecalis (GC 4554), 18 hours at 35° C.) | MIC Enterococcus faecium (GC 2243) (Enterococcus sp.; Enterococcus faecium (GC 2243), 18 hours at 35° C.) | MIC Enterococcus faecium (GC 4556) (Enterococcus sp.; Enterococcus faecium (GC 4556), 18 hours at 35° C.) | MIC Enterococcus avium (GC 4558) (Enterococcus sp.; [3]) | MIC Enterococcus faecalis (ATCC 29212) (Enterococcus sp.; [3]) | MIC Enterococcus faecalis (GC 2242) (Enterococcus sp.; [3]) | MIC Enterococcus faecalis (GC 3059) (Enterococcus sp.; [3]) | MIC Enterococcus faecalis (GC 4552) (Enterococcus sp.; [3]) | MIC Enterococcus faecalis (GC 4553) (Enterococcus sp.; [3]) | MIC Enterococcus faecalis (GC 4554) (Enterococcus sp.; [3]) | MIC Enterococcus faecium (GC 2243) (Enterococcus sp.; [3]) | MIC Enterococcus faecium (GC 4556) (Enterococcus sp.; [3])
1 µg/mL: MIC Escherichia coli (GC 4560) (Escherichia coli; Escherichia coli (GC 4560), 18 hours at 35° C.) | MIC Coagulase Negative Staphylococcus (GC 4547) (Staphylococcus sp.; Coagulase Negative Staphylococcus (GC 4547)) | MIC Coagulase Negative Staphylococcus (GC 4549) (Staphylococcus sp.; Coagulase Negative Staphylococcus (GC 4549)) | MIC Staphylococcus aureus (GC 4541) (Staphylococcus sp.; Staphylococcus aureus (GC 4541)) | MIC Staphylococcus aureus (GC 4545) (Staphylococcus sp.; Staphylococcus aureus (GC 4545)) | MIC Staphylococcus aureus-SMITH (GC 4543) (Staphylococcus sp.; Staphylococcus aureus-SMITH (GC 4543)) | MIC Staphylococcus haemolyticus (GC 4546) (Staphylococcus sp.; Staphylococcus haemolyticus (GC 4546))
0.25 µg/mL: MIC Streptococcus pyogenes (GC 4563) (Streptococcus sp.; Streptococcus pyogenes (GC 4563), 18 hours at 35° C.) | MIC Streptococcus pyogenes (GC 4563) (Streptococcus sp.; [3])
0: Anatomical Pathology (Day 10), Heart [2]
0.12 mg/kg: median effective dose (ED50), Staphylococcus aureus-SMITH (GC 4543) [1]
4 µg/mL: MIC Enterococcus faecalis (GC 2691) (Enterococcus sp.; Enterococcus faecalis (GC 2691), 18 hours at 35° C.) | MIC Enterococcus faecalis (GC 6189) (Enterococcus sp.; Enterococcus faecalis (GC 6189), 18 hours at 35° C.) | MIC Enterococcus faecalis (GC 2691) (Enterococcus sp.; [3]) | MIC Enterococcus faecalis (GC 6189) (Enterococcus sp.; [3])
2 µg/mL: MIC Enterococcus faecium (GC 4557) (Enterococcus sp.; Enterococcus faecium (GC 4557), 18 hours at 35° C.) | MIC Enterococcus faecium (GC 4557) (Enterococcus sp.; [3]) | MIC Coagulase Negative Staphylococcus (GC 4551) (Staphylococcus sp.; Coagulase Negative Staphylococcus (GC 4551)) | MIC Staphylococcus aureus (ATCC 29213) (Staphylococcus sp.; Staphylococcus aureus (ATCC 29213)) | MIC Staphylococcus aureus (GC 1131) (Staphylococcus sp.; Staphylococcus aureus (GC 1131)) | MIC Staphylococcus aureus (GC 3051) (Staphylococcus sp.; Staphylococcus aureus (GC 3051)) | MIC Staphylococcus aureus (GC 3053) (Staphylococcus sp.; Staphylococcus aureus (GC 3053)) | MIC Staphylococcus aureus (GC 4542) (Staphylococcus sp.; Staphylococcus aureus (GC 4542)) | MIC Staphylococcus aureus (GC 4544) (Staphylococcus sp.; Staphylococcus aureus (GC 4544))
<0.06 µg/mL: MIC Streptococcus pneumoniae (GC 1894) (Streptococcus sp.; Streptococcus pneumoniae (GC 1894), 18 hours at 35° C.) | MIC Streptococcus pneumoniae (GC 1894) (Streptococcus sp.; [3])

CC(c1ccccc1)C1NC(=O)CNC(=O)C(CO)NC(=O)C(C(O)C2CN(Cc3ccc4ccccc4c3)C(=N)N2C2OC(CO)C(O)C(O)C2O)NC(=O)C(C(O)C2CNC(=N)N2)NC(=O)C(Cc2ccc(OC3OC(CO)C(OC4OC5COC6(OC5C(O)C4O)C4CC5CC(C4)CC6C5)C(O)C3O)cc2)NC1=O (stereo not shown) [Example 78]
0.5 µg/mL: MIC Streptococcus pyogenes (GC 4563) (Streptococcus sp.; Streptococcus pyogenes (GC 4563), broth dilution, 18 hours at 35° C.) | MIC Streptococcus pyogenes (GC 4563) (Streptococcus sp.; strain GC 4563)
2 mg/kg: median effective dose (ED50), Staphylococcus aureus-SMITH (GC 4543) [1]
16 µg/mL: MIC Enterococcus faecalis (GC 2242) (Enterococcus sp.; Enterococcus faecalis (GC 2242), broth dilution, 18 hours at 35° C.) | MIC Enterococcus faecalis (GC 2691) (Enterococcus sp.; Enterococcus faecalis (GC 2691), broth dilution, 18 hours at 35° C.) | MIC Enterococcus faecalis (GC 3059) (Enterococcus sp.; Enterococcus faecalis (GC 3059), broth dilution, 18 hours at 35° C.) | MIC Enterococcus faecalis (GC 2242) (Enterococcus sp.; strain GC 2242) | MIC Enterococcus faecalis (GC 2691) (Enterococcus sp.; strain GC 2691) | MIC Enterococcus faecalis (GC 3059) (Enterococcus sp.; strain GC 3059) | MIC Enterococcus faecalis (GC 4554) (Enterococcus sp.; strain GC 4554) | MIC Enterococcus faecium (GC 4556) (Enterococcus sp.; strain GC 4556) | MIC Enterococcus faecalis (GC 6189) (Enterococcus sp.; strain GC 6189)
2 µg/mL: MIC Enterococcus faecium (GC 4557) (Enterococcus sp.; strain GC 4557) | MIC Coagulase Negative Staphylococcus (GC 6257) (Staphylococcus sp.; broth dilution) | MIC Streptococcus pneumoniae (GC 4565) (Streptococcus sp.; Streptococcus pneumoniae (GC 4565), broth dilution, 18 hours at 35° C.) | MIC Streptococcus pneumoniae (GC 4565) (Streptococcus sp.; strain GC 4565)
0.25 µg/mL: MIC Streptococcus pneumoniae (GC 1894) (Streptococcus sp.; Streptococcus pneumoniae (GC 1894), broth dilution, 18 hours at 35° C.) | MIC Streptococcus pneumoniae (GC 1894) (Streptococcus sp.; strain GC 1894)
0: Anatomical Pathology (Day 10), Heart [2]
4 µg/mL: MIC Enterococcus avium (GC 4558) (Enterococcus sp.; strain GC 4558) | MIC Escherichia coli (GC 4560) (Escherichia coli; strain GC 4560) | MIC Coagulase Negative Staphylococcus (GC 4547) (Staphylococcus sp.; broth dilution) | MIC Coagulase Negative Staphylococcus (GC 4548) (Staphylococcus sp.; broth dilution) | MIC Staphylococcus aureus (GC 4541) (Staphylococcus sp.; broth dilution) | MIC Staphylococcus aureus SMITH (GC 4543) (Staphylococcus sp.; broth dilution) | MIC Staphylococcus haemolyticus (GC 4546) (Staphylococcus sp.; broth dilution) | MIC Staphylococcus aureus-SMITH (GC 4543) (Staphylococcus sp.; strain SMITH GC 4543, broth dilution)
1 µg/mL: MIC Streptococcus agalactiae (GC 4564) (Streptococcus sp.; Streptococcus agalactiae (GC 4564), broth dilution, 18 hours at 35° C.) | MIC Streptococcus pneumoniae (ATCC 6301) (Streptococcus sp.; Streptococcus pneumoniae (ATCC 6301), broth dilution, 18 hours at 35° C.) | MIC Streptococcus pneumoniae (ATCC 6301) (Streptococcus sp.; strain ATCC 6301) | MIC Streptococcus agalactiae (GC 4564) (Streptococcus sp.; strain GC 4564)
8 µg/mL: MIC Enterococcus faecalis (ATCC 29212) (Enterococcus sp.; strain ATCC 29212) | MIC Enterococcus faecium (GC 2243) (Enterococcus sp.; strain GC 2243) | MIC Enterococcus faecalis (GC 4552) (Enterococcus sp.; strain GC 4552) | MIC Enterococcus faecalis (GC 4553) (Enterococcus sp.; strain GC 4553) | MIC Coagulase Negative Staphylococcus (GC 4549) (Staphylococcus sp.; broth dilution) | MIC Coagulase Negative Staphylococcus (GC 4551) (Staphylococcus sp.; broth dilution) | MIC Staphylococcus aureus (ATCC 29213) (Staphylococcus sp.; broth dilution) | MIC Staphylococcus aureus (GC 1131) (Staphylococcus sp.; broth dilution) | MIC Staphylococcus aureus (GC 3051) (Staphylococcus sp.; broth dilution) | MIC Staphylococcus aureus (GC 3053) (Staphylococcus sp.; broth dilution) | MIC Staphylococcus aureus (GC 4542) (Staphylococcus sp.; broth dilution) | MIC Staphylococcus aureus (GC 4544) (Staphylococcus sp.; broth dilution) | MIC Staphylococcus aureus (GC 4545) (Staphylococcus sp.; broth dilution)
++: Anatomical Pathology (Day 10), Kidney [2]
